From ChEMBL document CHEMBL5390237, “Discovery of Selective Histone Deacetylase 1 and 2 Inhibitors: Screening of a Focused Library Constructed by Click Chemistry, Kinetic Binding Analysis, and Biological Evaluation” (J Med Chem, 2023)

Molecular target: Histone deacetylase 2 (Homo sapiens, UniProt Q92769)
Test: Inhibition of full-length recombinant human C-terminal GST tagged HDAC2 expressed in Sf9 insect cells using aminoluciferin peptide substrate at 100 nM preincubated for 3 hrs followed by substrate addition and measured after 30 mins by HDAC-Glo I/II chemiluminescence assay
Details: time 3.5 hrs

Sequence of Histone deacetylase 2 (Q92769 whole entry): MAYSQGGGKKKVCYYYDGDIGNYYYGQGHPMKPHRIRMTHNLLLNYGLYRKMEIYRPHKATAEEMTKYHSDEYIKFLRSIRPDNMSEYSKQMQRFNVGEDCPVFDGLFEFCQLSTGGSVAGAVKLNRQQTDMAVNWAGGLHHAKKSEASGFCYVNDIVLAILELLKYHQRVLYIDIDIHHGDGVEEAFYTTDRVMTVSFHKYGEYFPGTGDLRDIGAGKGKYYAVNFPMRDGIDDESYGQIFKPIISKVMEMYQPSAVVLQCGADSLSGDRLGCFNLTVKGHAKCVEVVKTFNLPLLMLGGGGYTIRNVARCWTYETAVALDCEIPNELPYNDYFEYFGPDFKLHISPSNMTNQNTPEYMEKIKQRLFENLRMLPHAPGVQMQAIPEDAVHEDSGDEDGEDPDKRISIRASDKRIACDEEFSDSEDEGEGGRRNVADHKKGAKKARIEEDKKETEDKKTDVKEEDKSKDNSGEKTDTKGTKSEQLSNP

inhibition [%] | Structure (SMILES)
33 | Nc1ccc(-c2cccs2)cc1NC(=O)c1ccc(-c2cn(CCc3ccccc3[N+](=O)[O-])nn2)cc1
33 | Nc1ccc(-c2ccc(F)cc2)cc1NC(=O)CCc1cn(CCc2ccc(C(=O)O)cc2)nn1
0 | Nc1ccc(-c2ccc(F)cc2)cc1NC(=O)c1cn(CCc2cccc(Cl)c2)nn1
17 | Nc1ccc(-c2ccc(F)cc2)cc1NC(=O)CCc1cn(CCc2ccc(F)cc2)nn1
10 | Cc1cccc(CCn2cc(C(=O)Nc3cc(-c4ccc(F)cc4)ccc3N)nn2)c1
0 | Nc1ccc(-c2cccs2)cc1NC(=O)c1ccc(-c2cn(CCc3ccc(C(F)(F)F)cc3)nn2)s1
0 | Nc1ccc(-c2cccs2)cc1NC(=O)c1cccc(-c2cn(Cc3ccc(Oc4ccccc4)cc3)nn2)c1
3 | Nc1ccc(-c2ccc(F)cc2)cc1NC(=O)CCc1cn(CCc2ccc(Cl)cc2)nn1
20 | COc1ccccc1CCn1cc(-c2ccc(C(=O)Nc3cc(-c4cccs4)ccc3N)s2)nn1
0 | Nc1ccc(-c2ccc(F)cc2)cc1NC(=O)c1cn(CCc2ccccc2Cl)nn1
0 | Nc1ccc(-c2cccs2)cc1NC(=O)c1cccc(-c2cn(CCc3ccc(F)cc3)nn2)c1
30 | Cc1ccc(CCn2cc(CCC(=O)Nc3cc(-c4cccs4)ccc3N)nn2)cc1
14 | Nc1ccc(-c2cccs2)cc1NC(=O)c1ccc(-c2cn(CCc3ccc(F)cc3)nn2)cc1
29 | COc1ccccc1CCn1cc(-c2ccc(C(=O)Nc3cc(-c4cccs4)ccc3N)cc2)nn1
4 | Nc1ccc(-c2cccs2)cc1NC(=O)c1ccc(-c2cn(-c3ccc([N+](=O)[O-])cc3)nn2)cc1
1 | Nc1ccc(-c2ccc(F)cc2)cc1NC(=O)CCc1cn(CCc2ccc(C(F)(F)F)cc2)nn1
23 | Nc1ccc(-c2cccs2)cc1NC(=O)c1ccc(-c2cn(CC(=O)Nc3ccc(F)cc3)nn2)s1
0 | Nc1ccc(-c2cccs2)cc1NC(=O)c1cccc(-c2cn(CCc3cccc(F)c3)nn2)c1
36 | Nc1ccc(-c2cccs2)cc1NC(=O)c1ccc(-c2cn(CCCCC(=O)O)nn2)cc1
9 | Nc1ccc(-c2cccs2)cc1NC(=O)c1ccc(-c2cn(CCCCCC(=O)O)nn2)cc1
6 | Nc1ccc(-c2cccs2)cc1NC(=O)c1ccc(-c2cn(CCc3cccc(Cl)c3)nn2)s1
0 | Nc1ccc(-c2cccs2)cc1NC(=O)c1ccc(-c2cn(CCCCCCC(=O)O)nn2)cc1

Further lines, the compound ahead of its results:

Structure (SMILES) | inhibition [%]
Nc1ccc(-c2cccs2)cc1NC(=O)c1cn(CCC2CCCCC2)nn1 | 3
Cc1cccc(CCn2cc(CCC(=O)Nc3cc(-c4cccs4)ccc3N)nn2)c1 | 24
Nc1ccc(-c2ccc(F)cc2)cc1NC(=O)c1cn(CCC2CCCCC2)nn1 | 5
Nc1ccc(-c2ccsc2)cc1NC(=O)CCc1cn(CCc2cccc([N+](=O)[O-])c2)nn1 | 36
Nc1ccc(-c2ccc(F)cc2)cc1NC(=O)CCc1cn(-c2ccccc2-c2ccccc2)nn1 | 8
Nc1ccc(-c2cccs2)cc1NC(=O)CCc1cn(CCc2ccsc2)nn1 | 13
Nc1ccc(-c2cccs2)cc1NC(=O)CCc1cn(Cc2ccc(-c3ccccc3)cc2)nn1 | 0
Nc1ccc(-c2cccnc2)cc1NC(=O)CCc1cn(CC(=O)c2ccccc2)nn1 | 3
Nc1ccc(-c2ccsc2)cc1NC(=O)CCc1cn(CC(=O)Nc2ccc(F)cc2)nn1 | 14
Nc1ccc(-c2cccnc2)cc1NC(=O)CCc1cn(CCCCCCC(=O)O)nn1 | 0
Nc1ccc(-c2cccs2)cc1NC(=O)c1cn(-c2ccccc2-c2ccccc2)nn1 | 0
Nc1ccc(-c2ccccc2)cc1NC(=O)CCc1cn(C[S+]([O-])c2ccccc2)nn1 (stereo not drawn) | 8
Nc1ccc(-c2ccc(F)cc2)cc1NC(=O)CCc1cn(Cc2ccc(-c3ccccc3)cc2)nn1 | 0
Nc1ccc(-c2cccs2)cc1NC(=O)c1cn(CC(=O)c2ccccc2)nn1 | 15
Nc1ccc(-c2ccc(F)cc2)cc1NC(=O)CCc1cn(CCCCCC(=O)O)nn1 | 0
Nc1ccc(-c2ccsc2)cc1NC(=O)c1cn(CCc2cccc3ccccc23)nn1 | 0
Nc1ccc(-c2ccsc2)cc1NC(=O)CCc1cn(Cc2ccc(Oc3ccccc3)cc2)nn1 | 0
Nc1ccc(-c2cccs2)cc1NC(=O)CCc1cn(CCC2CCCCC2)nn1 | 4
Nc1ccc(-c2ccccc2)cc1NC(=O)c1cn(CCc2cccc(Cl)c2)nn1 | 0
Nc1ccc(-c2ccsc2)cc1NC(=O)CCc1cn(CCc2ccc3ccccc3n2)nn1 | 20
Nc1ccc(-c2ccc(F)cc2)cc1NC(=O)CCc1cn(CCC2CCCC2)nn1 | 0
Nc1ccc(-c2ccccc2)cc1NC(=O)c1cn(-c2ccc(Br)cc2)nn1 | 0
Nc1ccc(-c2ccc(F)cc2)cc1NC(=O)CCc1cn(CCc2ccccn2)nn1 | 18

Structure (SMILES) | inhibition [%]
Nc1ccc(-c2cccs2)cc1NC(=O)c1cn(CCCCCCCC(=O)O)nn1 | 2
Nc1ccc(-c2cccnc2)cc1NC(=O)CCc1cn(Cc2ccc(OC(F)(F)F)cc2)nn1 | 3
Nc1ccc(-c2ccccc2)cc1NC(=O)CCc1cn(CCCCCc2ccccc2)nn1 | 0
Cc1ccc(-n2cc(C(=O)Nc3cc(-c4ccsc4)ccc3N)nn2)cc1C | 0
Nc1ccc(-c2ccccc2)cc1NC(=O)CCc1cn(CCN2CCc3ccccc3C2)nn1 | 11
Cc1cccc(CCn2cc(CCC(=O)Nc3cc(-c4ccccc4)ccc3N)nn2)c1 | 27
Nc1ccc(-c2cccs2)cc1NC(=O)c1ccc(-c2cn(CC(=O)c3ccccc3)nn2)s1 | 22
Nc1ccc(-c2ccc(F)cc2)cc1NC(=O)CCc1cn(CCc2cccc([N+](=O)[O-])c2)nn1 | 41
Nc1ccc(-c2ccsc2)cc1NC(=O)c1cn(CCc2ccc(C(F)(F)F)cc2)nn1 | 0
Nc1ccc(-c2cccs2)cc1NC(=O)CCc1cn(CCc2ccccc2Cl)nn1 | 5
Nc1ccc(-c2cccnc2)cc1NC(=O)CCc1cn(CCc2cccc(F)c2)nn1 | 13
Nc1ccc(-c2cccs2)cc1NC(=O)c1ccc(-c2cn(Cc3ccc(OC(F)(F)F)cc3)nn2)s1 | 0
Nc1ccc(-c2cccs2)cc1NC(=O)c1ccc(-c2cn(CCC34CC5CC(CC(C5)C3)C4)nn2)cc1 | 5
Nc1ccc(-c2cccs2)cc1NC(=O)c1cn(Cc2cccc(-c3ccccc3)c2)nn1 | 6
Cc1cccc(CCn2cc(CCC(=O)Nc3cc(-c4ccc(F)cc4)ccc3N)nn2)c1 | 36
Nc1ccc(-c2cccnc2)cc1NC(=O)CCc1cn(Cc2cccc(C(=O)O)c2)nn1 | 0
Nc1ccc(-c2cccs2)cc1NC(=O)CCc1cn(CCc2cccc3ccccc23)nn1 | 0
Cc1ccccc1CCn1cc(CCC(=O)Nc2cc(-c3cccnc3)ccc2N)nn1 | 0
Nc1ccc(-c2cccs2)cc1NC(=O)c1ccc(-c2cn(CS(=O)(=O)c3ccccc3)nn2)s1 | 44
Nc1ccc(-c2ccsc2)cc1NC(=O)CCc1cn(Cc2ccc(-c3ccccc3)cc2)nn1 | 0
Nc1ccc(-c2ccccc2)cc1NC(=O)c1cn(CCc2ccc(C(F)(F)F)cc2)nn1 | 0
Nc1ccc(-c2cccnc2)cc1NC(=O)CCc1cn(CCC2CCCCC2)nn1 | 5
Nc1ccc(-c2ccc(F)cc2)cc1NC(=O)CCc1cn(CC2CCCCC2)nn1 | 1
